Test results reported in patent US8673904B2, “Epoxide inhibitors of cysteine proteases” (The Board of Trustees of the Leland Stanford Junior …, priority 2006, dated 2014).

System: cathepsin targets
Assay: Cathepsin targets of the compounds (Table 4)
Assay type: biochemical, rat
Conditions: cathepsin target(s) inhibited; General = all cathepsins
Procedure: Also included in the table for comparison are known compounds JPMOEt and JPMOH (also known as JPM-565). See Meara and Rich, J. Med. Chem. 39:3357-3366, 1996; Bogyo et al, Chem. Biol. 7:27-38, 2000; and Joyce et al., Cancer Cell 5:443-453, 2004. The table also lists cathepsin targets and measured IC50 values for specific compounds. To determine these values, 1 mg/ml of rat liver lysate was incubated with a series of concentrations of the inhibitor for 20 minutes. Then, 1 ul of a radiolabled general cathepsin probe, DCG-04, was added to the solutions and incubated for 1 hour. After fixing and drying the gel, the residual enzyme activity was measured using ImageJ software. The measurements were then transferred to GraphPad Prism 4 to calculate the IC50 values.

Row | Structure (SMILES) | Target
1 | CC(=O)NCCNC(=O)[C@H]1O[C@@H]1C(=O)N[C@@H](Cc1ccc(C)cc1)C(=O)N[C@@H](Cc1ccc(O)cc1)C(N)=O [Compound 1] | Cat B
2 | Cc1ccc(C[C@H](NC(=O)C2OC2C(=O)NCc2ccccc2)C(=O)N[C@@H](Cc2ccc(O)cc2)C(N)=O)cc1 (some centres unmarked) [Compound 2] | Cat B
3 | Cc1ccc(C[C@H](NC(=O)[C@H]2O[C@@H]2C(=O)NCCc2ccccn2)C(=O)N[C@@H](Cc2ccc(O)cc2)C(N)=O)cc1 [Compound 3] | Cat B
4 | Cc1ccc(C[C@H](NC(=O)C2OC2C(=O)NCCN2CCOCC2)C(=O)N[C@@H](Cc2ccc(O)cc2)C(N)=O)cc1 (some centres unmarked) [Compound 4] | Cat B
5 | Cc1ccc(C[C@H](NC(=O)C2OC2C(=O)NCCc2ccc(-c3ccccc3)cc2)C(=O)N[C@@H](Cc2ccc(O)cc2)C(N)=O)cc1 (some centres unmarked) [Compound 5] | Cat B
6 | Cc1ccc(C[C@H](NC(=O)[C@H]2O[C@@H]2C(=O)NCCc2ccc(O)cc2)C(=O)N[C@@H](Cc2ccc(O)cc2)C(N)=O)cc1 [Compound 6] | Cat B
7 | Cc1ccc(C[C@H](NC(=O)[C@H]2OC2C(=O)NCCN2CCCC2)C(=O)N[C@@H](Cc2ccc(O)cc2)C(N)=O)cc1 (some centres unmarked) [Compound 7] | Cat B
8 | Cc1ccc(C[C@H](NC(=O)[C@H]2O[C@@H]2C(=O)NCc2cccc3ccccc23)C(=O)N[C@@H](Cc2ccc(O)cc2)C(N)=O)cc1 [Compound 8] | Cat B
9 | Cc1ccc(C[C@H](NC(=O)C2OC2C(=O)NCCN2CCCCC2)C(=O)N[C@@H](Cc2ccc(O)cc2)C(N)=O)cc1 (some centres unmarked) [Compound 9] | Cat B
10 | Cc1ccc(C[C@H](NC(=O)C2OC2C(=O)N[C@H](C)c2ccccc2)C(=O)N[C@@H](Cc2ccc(O)cc2)C(N)=O)cc1 (some centres unmarked) [Compound 10] | Cat B
11 | Cc1ccc(C[C@H](NC(=O)C2O[C@@H]2C(=O)NN2CCN(C)CC2)C(=O)N[C@@H](Cc2ccc(O)cc2)C(N)=O)cc1 (some centres unmarked) [Compound 11] | Cat B
12 | Cc1ccc(C[C@H](NC(=O)C2OC2C(=O)NCCCO)C(=O)N[C@@H](Cc2ccc(O)cc2)C(N)=O)cc1 (some centres unmarked) [Compound 12] | Cat B
13 | Cc1ccc(C[C@H](NC(=O)C2OC2C(=O)NCCCCCCO)C(=O)N[C@@H](Cc2ccc(O)cc2)C(N)=O)cc1 (some centres unmarked) [Compound 13] | Cat B
14 | CCNC(=O)C1OC1C(=O)N[C@@H](Cc1ccc(C)cc1)C(=O)N[C@@H](Cc1ccc(O)cc1)C(N)=O (some centres unmarked) [Compound 14] | Cat B
15 | Cc1ccc(C[C@H](NC(=O)C2OC2C(=O)NCC(N)=O)C(=O)N[C@@H](Cc2ccc(O)cc2)C(N)=O)cc1 (some centres unmarked) [Compound 15] | Cat B
16 | Cc1ccc(C[C@H](NC(=O)C2OC2C(=O)NCC(C)C)C(=O)N[C@@H](Cc2ccc(O)cc2)C(N)=O)cc1 (some centres unmarked) [Compound 17] | Cat B
17 | CCOC(=O)C1OC1C(=O)N[C@@H](Cc1ccc(C)cc1)C(=O)N[C@@H](Cc1ccc(O)cc1)C(N)=O (some centres unmarked) [Compound 18] | Cat B
18 | Cc1ccc(C[C@H](NC(=O)[C@H]2OC2C(=O)O)C(=O)N[C@@H](Cc2ccc(O)cc2)C(N)=O)cc1 (some centres unmarked) [Compound 19] | Cat B
19 | CC(=O)NCCNC(=O)C1O[C@@H]1C(=O)N[C@@H](CC(C)C)C(=O)N[C@@H](Cc1ccc(O)cc1)C(N)=O (some centres unmarked) [Compound 20] | Cat B
20 | CC(C)C[C@H](NC(=O)[C@H]1OC1C(=O)NCc1ccccc1)C(=O)N[C@@H](Cc1ccc(O)cc1)C(N)=O (some centres unmarked) [Compound 21] | Cat B
21 | CC(C)C[C@H](NC(=O)C1OC1C(=O)NCCc1ccccn1)C(=O)N[C@@H](Cc1ccc(O)cc1)C(N)=O (some centres unmarked) [Compound 22] | Cat B
22 | CC(C)C[C@H](NC(=O)C1OC1C(=O)NCCN1CCOCC1)C(=O)N[C@@H](Cc1ccc(O)cc1)C(N)=O (some centres unmarked) [Compound 23] | Cat B

Row | Structure (SMILES) | Target
23 | CC(C)C[C@H](NC(=O)C1OC1C(=O)NCCc1ccc(-c2ccccc2)cc1)C(=O)N[C@@H](Cc1ccc(O)cc1)C(N)=O (some centres unmarked) [Compound 24] | Cat B
24 | CC(C)C[C@H](NC(=O)[C@H]1OC1C(=O)NCCN1CCCC1)C(=O)N[C@@H](Cc1ccc(O)cc1)C(N)=O (some centres unmarked) [Compound 26] | Cat B
25 | CC(C)C[C@H](NC(=O)[C@H]1O[C@@H]1C(=O)NCc1cccc2ccccc12)C(=O)N[C@@H](Cc1ccc(O)cc1)C(N)=O [Compound 27] | Cat B
26 | CC(C)C[C@H](NC(=O)[C@H]1OC1C(=O)NCCN1CCCCC1)C(=O)N[C@@H](Cc1ccc(O)cc1)C(N)=O (some centres unmarked) [Compound 28] | Cat B
27 | CC(C)C[C@H](NC(=O)[C@H]1OC1C(=O)N[C@H](C)c1ccccc1)C(=O)N[C@@H](Cc1ccc(O)cc1)C(N)=O (some centres unmarked) [Compound 29] | Cat B
28 | CC(C)C[C@H](NC(=O)C1OC1C(=O)NN1CCN(C)CC1)C(=O)N[C@@H](Cc1ccc(O)cc1)C(N)=O (some centres unmarked) [Compound 30] | Cat B
29 | CC(C)C[C@H](NC(=O)C1OC1C(=O)NCCCCCCO)C(=O)N[C@@H](Cc1ccc(O)cc1)C(N)=O (some centres unmarked) [Compound 32] | Cat B
30 | CCNC(=O)C1OC1C(=O)N[C@@H](CC(C)C)C(=O)N[C@@H](Cc1ccc(O)cc1)C(N)=O (some centres unmarked) [Compound 33] | Cat B
31 | CC(C)C[C@H](NC(=O)C1OC1C(=O)NCC(N)=O)C(=O)N[C@@H](Cc1ccc(O)cc1)C(N)=O (some centres unmarked) [Compound 34] | Cat B
32 | CC(C)C[C@H](NC(=O)[C@H]1OC1C(=O)NCC(=O)O)C(=O)N[C@@H](Cc1ccc(O)cc1)C(N)=O (some centres unmarked) [Compound 35] | Cat B
33 | CC(C)CNC(=O)C1OC1C(=O)N[C@@H](CC(C)C)C(=O)N[C@@H](Cc1ccc(O)cc1)C(N)=O (some centres unmarked) [Compound 36] | Cat B
34 | CC(C)C[C@H](NC(=O)C1OC1C(=O)N[C@@H](C)c1ccccc1)C(=O)N[C@@H](Cc1ccc(O)cc1)C(N)=O (some centres unmarked) [Compound 37] | Cat B
35 | CC(C)C[C@H](NC(=O)C1OC1C(=O)NCCO)C(=O)N[C@@H](Cc1ccc(O)cc1)C(N)=O (some centres unmarked) [Compound 38] | Cat B
36 | CC(=O)NCCNC(=O)C1OC1C(=O)N[C@@H](CC(C)C)C(=O)N[C@@H](Cc1ccc(O)cc1)C(N)=O (some centres unmarked) [Compound 41] | Cat B
37 | CC(C)C[C@H](NC(=O)[C@@H]1O[C@H]1C(=O)NCc1ccccc1)C(=O)N[C@@H](Cc1ccc(O)cc1)C(N)=O [Compound 42] | Cat B
38 | CC(C)C[C@H](NC(=O)C1O[C@H]1C(=O)NCCc1ccccn1)C(=O)N[C@@H](Cc1ccc(O)cc1)C(N)=O (some centres unmarked) [Compound 43] | Cat B
39 | CC(C)C[C@H](NC(=O)C1OC1C(=O)NCCc1ccc(-c2ccccc2)cc1)C(=O)N[C@@H](Cc1ccc(O)cc1)C(N)=O (some centres unmarked) [Compound 45] | Cat B
40 | CC(C)C[C@H](NC(=O)[C@@H]1O[C@H]1C(=O)NCc1cccc2ccccc12)C(=O)N[C@@H](Cc1ccc(O)cc1)C(N)=O [Compound 48] | Cat B
41 | CC(C)C[C@H](NC(=O)C1O[C@H]1C(=O)NCCN1CCCCC1)C(=O)N[C@@H](Cc1ccc(O)cc1)C(N)=O (some centres unmarked) [Compound 49] | Cat B
42 | CC(C)C[C@H](NC(=O)C1OC1C(=O)N[C@H](C)c1ccccc1)C(=O)N[C@@H](Cc1ccc(O)cc1)C(N)=O (some centres unmarked) [Compound 50] | Cat B
43 | CC(C)C[C@H](NC(=O)C1O[C@H]1C(=O)NCCCCCCO)C(=O)N[C@@H](Cc1ccc(O)cc1)C(N)=O (some centres unmarked) [Compound 53] | Cat B
44 | CC(C)CNC(=O)C1OC1C(=O)N[C@@H](CC(C)C)C(=O)N[C@@H](Cc1ccc(O)cc1)C(N)=O (some centres unmarked) [Compound 57] | Cat B
